Data on 1 compound can be found in patent publication US20030064380A1, “Anergy-regulated molecules” (The Center For Blood Research, Inc., priority 2001, published 2003).

One assay has as its system D5 T cells. Description: proliferation assay (3H-thymidine) of D5 T cells after ionomycin pretreatment. Type of assay: cell-based, murine. How it is done:
D5 or primary T cells were stimulated with APC and antigen and pulsed for 24 hours with 10 μCi/ml ^3H-thymidine. DNA was collected using a cell harvester and the amount of radioactivity incorporated was measured in a β-counter.
The murine antigen-specific Th1 clone D5 was used to set up the model of clonal anergy developed by Schwartz and coworkers (Schwartz, (1996) J. Exp. Med. 184: 1-8).

Another assay has as its system caspase-3. The experiment in a line: RNase protection assay of caspase-3 mRNA. Type of assay: cell-based, murine. The settings on record: D5 T cells. On the procedure: Total cellular RNA was purified from resting cells or cells stimulated with APC and antigen or anti-CD3 plus anti-CD28 for 4 h, using Ultraspec reagent (Biotecx) and analyzed using the RiboQuant multiprobe RNase protection kit and specific multi-set probes (Pharmingen) according to the manufacturer's instructions. Jurkat cells were transfected by electroporation in serum-free medium with pulses of 250 V and 960 μF with […] of pEGFPN1 (Clontech) or pNLS-NFAT1 (ST2+5+8) (Okamura et al., (2000) Mol. Cell. 6: 539-550). RNA from transiently transfected Jurkat cells was obtained after selecting transfected cells for expression of a cotransfected murine CD4 plasmid using magnetic beads (Dynal).
Of particular interest was the fact that several of the ionomycin-induced genes encoded proteins involved (or potentially involved) in protein degradation. Candidate genes in this category included caspase-3, SOCS-2 and Traf5 (FIG. 6B). Caspase-3 is an enzyme for which commercial reagents are readily available. Tests were conducted to determine whether caspase-3 was activated and functional in ionomycin-pretreated T cells. […] Further work will be necessary to establish whether proteolysis occurs in specific intracellular compartments relevant to TCR signal transduction or whether other signaling proteins are substrates for proteolysis in anergic cells.

The test system of assay [1] is NFAT, AP-1 and NFκB DNA-binding activity. Description: electrophoretic mobility shift assay of nuclear extracts of stimulated Th1 cells. Type of assay: cell-based. On the procedure:
Nuclear extracts were prepared from Th1 cells, unstimulated or stimulated for 60 minutes with 500 nM ionomycin or 20 nM PMA plus 500 nM ionomycin. Binding reactions were performed as previously described (Macian et al., (2000) EMBO J. 19: […]) using NFAT, AP-1 and NF-KB specific probes (Goldfeld et al., (1993) J. Exp. Med. 178: 1365-1379).
Background: In EMSA bound probe runs differently from free probe, usually more slowly.

As for `C[C@H](CCC(=O)O)C[C@H](C)C[C@H](C)C(=O)/C=C(\O)[C@H](C)C[C@H](C)C/C=C/[C@@H](C)[C@@H](O)[C@@H](C)[C@@H](O)C[C@@H]1CC[C@@](C)([C@H]2CC[C@@](C)([C@@H](C)O)O2)O1` [Ionomycin, ionomycin], the “subsequent proliferative response to antigen or anti-CD3” value with D5 T cells is reported as “greatly diminished”. In addition, the “caspase-3 mRNA level” value in the assay with caspase-3 was “upregulated”. Also, in assay [1], the “AP-1 or NFκB DNA-binding activity” value is reported as “no increase” and the “NFAT DNA-binding activity” value was “increased”.
